Test system: Xanthomonas campestris p.v. campestris
Assay: Cross-streak culture screening for antagonistic bacteria
Assay type: cell-based
Settings: cross application on potato dextrose-broth-agar medium, 25° C., 3 days
Method: Filamentous fungi and bacteria (hereinafter referred to as “candidate microorganisms” in general) isolated from a seed or a soil is streaked on a same medium as that of the pathogenic microorganisms of the seed borne disease which is a target to be controlled in a dual or cross manner and are cultured for several days under a temperature suitable for growing the pathogenic microorganisms (dual culture). After the microorganism have been cultured, growth thereof are observed; then, the one which apparently controlled the growth of the pathogenic microorganisms by the candidate microorganism is selected as the effective microorganism which has an antagonistic property (Laboratory Guide for Plant Pathology and Microbiology, 459-474, Satoshi Wakimoto et al., Soft Science Inc., 1993).
Each type of the above-described seeds was shaken in a physiological saline solution (a distilled water solution containing 0.85 weight % of sodium chloride) having 2.5 times the weight of the seeds for 2.5 hours. Then, the solution was evenly streaked on an albumin-agar culture medium. In six days after streaking, a colony which has emerged was isolated and, then, streaked on a potato dextrose-broth-agar culture medium (available from Difco Laborarories, Mich., U.S.A.) in a cross application manner against Xanthomonas campestris p.v. campestris to be cultured at 25° C. […] As a result, three bacterial strains under names of TK-12, TK-151, and TK-185 were obtained. Taxonomic properties of these three strains are shown below in Table 1.

Row | Substance | control of growth of Xanthomonas campestris p.v. campestris
1 | Pantoea sp. TK-185 | controls growth of such Xanthomonas campestris p.v. campestris
2 | Leclercia adecarboxylata TK-151 | controls growth of such Xanthomonas campestris p.v. campestris
3 | Pantoea sp. TK-12 | controls growth of such Xanthomonas campestris p.v. campestris

From US20020023385A1, “Method of controlling seed disease” (priority 2000, published 2002)
